From patent US20190336504A1, “TREATMENT AND PREVENTION OF CYTOKINE RELEASE SYNDROME USING A CHIMERIC ANTIGEN RECEPTOR IN COMBINATION WITH A KINASE INHIBITOR” (Novartis AG, priority 2016, published 2019)
Where two headings read alike, the source gives them in different places.

How the values were obtained:
primary AML blasts = type: in vivo
Description: For the development of CRS preclinical models, NOD-SCID-γ chain−/− (NSG) transgenic for human interleukin-3, stem cell factor and granulocyte macrophage colony-stimulating factor (NSG-S) were used. These were purchased from the Stem Cell and Xenograft Core of the University of Pennsylvania (originally obtained from Jackson Laboratories). Schemas of the utilized xenograft models are discussed in detail in the relevant figures and the Results section herein. Cells were injected in 200 ul of phosphate-buffered saline at the indicated concentration into the tail veins.
Ruxolitinib was purchased from Selleckchem, dissolved in DMSO and diluted to the indicated concentrations. […] Blood. […] Blood. […] Blood. 2016.
See, e.g., Gill S, Tasian S K, Ruella M, et al. Preclinical targeting of human acute myeloid leukemia and myeloablation using chimeric antigen receptor-modified T cells. Blood. 2014; 123:2343-2354. In particular, NSG-S mice were engrafted with primary AML blasts (5×10^6) and bled after 2-4 weeks to confirm engraftment. Mice then were treated with high doses of CART123 1×10^6 by intravenous tail vein single injection and monitored with serial clinical examinations, weight recording and retro-orbital bleedings for leukemia burden assessment and cytokine analysis. […] (CART123 were injected on day 41 post AML injection in the experiment.)
The experiments in this Example investigated ruxolitinib as a modality to prevent or reduce CRS severity after CART123 in the AML xenograft model described herein. NSGS mice were engrafted with primary AML blasts (5×10^6) and bled after 2-4 weeks to confirm peripheral blood engraftment. NSGS mice bearing primary AML were treated with CART123 (1×10^6) by intravenous tail vein single injection along with ruxolitinib or vehicle control. The mice were randomized to receive different doses of ruxolitinib (30 mg/kg, 60 mg/kg or 90 mg/kg) or vehicle by oral gavage twice a day. Treatment started on the day of CART123 injection and continued for a week (FIG. 2A). Mice were then monitored with serial clinical examinations, weight recording, retro-orbital bleedings for leukemia burden assessment and cytokine analysis and followed for survival.

AML = details: summary statement
primary MCL cells [1] = experiment: Cytokine production of primary MCL cells incubated for 24 hours with ibrutinib; type: cell-based; details: FIG. 4F
Description: (§1) All graphs in FIGS. 4B-4F are representative of two independent experiments (5 mice per group). Student's t-test was used to compare two groups; in analysis where multiple groups were compared, one-way analysis of variance (ANOVA) was performed with Holm-Sidak correction for multiple comparisons. Survival curves were compared using the log-rank test. Asterisks represent p-values (*=<0.05, **=<0.01, ***=<0.001, ****=<0.0001) and “ns” means “not significant” (p>0.05).

B cell neoplasms = type: in vivo, mice
Source text: For FIGS. 3C-3E, all graphs were representative of two independent experiments (5 mice per group). Student's t-test was used to compare two groups. Survival curves were compared using the log-rank test. Asterisks represent p-values (*=<0.05, **=<0.01, ***=<0.001, ****=<0.0001) and “ns” means “not significant” (p>0.05).
as §1

primary MCL cells [2] = type: in vivo, NOD-SCID gamma-chain deficient mice (NSG)
Description: This example describes the development of such a model generated by intravenously injecting NOD-SCID gamma-chain deficient mice (NSG) with primary MCL cells collected from a patient with relapsed MCL (FIG. 3A). NOD SCID Gamma-chain deficient mice were injected with 2×10^6 primary MCL cells intravenously. […] Mice were then followed up for clinical signs, T cell engraftment, tumor burden and survival.
NOD SCID Gamma-chain deficient mice were injected with 2×10^6 primary MCL cells intravenously. […] Mice were then followed up for clinical signs, T cell engraftment, tumor burden and survival. […] See, e.g., Ruella et al. Clin Cancer Res 2016; 10.1158/1078-0432.CCR-15-1527.

For `N#CC[C@H](C1CCCC1)n1cc(-c2ncnc3[nH]ccc23)cn1` [ruxolitinib, (3R)-3-cyclopentyl-3-[4-(7H-pyrrolo[2,3-d]pyrimidin-4-yl)pyrazol-1-yl]propanenitrile], the “leukemia in peripheral blood of surviving mice” value (primary AML blasts; 70 days post AML injection, live human CD45 positive cells) was “all surviving mice had eradication of leukemia”, the anti-leukemic effect (primary AML blasts; all groups: CART123 + ruxolitinib 30, 60 or 90 mg/kg or vehicle) was “equivalent anti-leukemic effect” and the “T cell expansion in the peripheral blood” value (primary AML blasts; ruxolitinib 60 mg/kg + CART123) was “blunted T cell expansion”. For the same molecule, the leukemia burden (primary AML blasts; ruxolitinib 60 mg/kg + CART123) was “leukemia eradication”, the “levels of inflammatory cytokines” value (primary AML blasts; ruxolitinib 60 mg/kg + CART123) was “reduced levels of inflammatory cytokines” and the weight loss (primary AML blasts; ruxolitinib 60 mg/kg + CART123) was “transient weight loss”. For the same molecule, the survival (primary AML blasts; ruxolitinib 60 mg/kg + high dose CART123) was “long-term disease free survival”, the “clinical illness (CRS) manifested by weight loss” value (primary AML blasts; ruxolitinib 60 mg/kg oral gavage twice a day for a week + CART123, vs CART123 alone or + 30 mg/kg) was “less severe clinical illness” and the “clinical illness (CRS) manifested by weight loss” value (primary AML blasts; ruxolitinib 90 mg/kg oral gavage twice a day for a week + CART123, vs CART123 alone or + 30 mg/kg) was “less severe clinical illness”. For the same molecule, the direct anti-tumor activity (primary AML blasts; ruxolitinib with CART123) was “no direct anti-tumor activity”, the “effect on anti-tumor activity of CART123” value (primary AML blasts; ruxolitinib with CART123) was “did not impair” and the “cytokine release syndrome (CRS) after CART cell therapy” value (AML; CART cell therapy for hematological cancers, such as AML) was “ameliorate cytokine release syndrome (CRS) severity or prevent CRS”. For the same molecule, the “anti-tumor effect of the CART therapy” value (AML; combination with JAK-STAT kinase inhibitor) was “without significantly impairing”.

`C=CC(=O)N1CCC[C@@H](n2nc(-c3ccc(Oc4ccccc4)cc3)c3c(N)ncnc32)C1` [ibrutinib, 1-[(3R)-3-[4-Amino-3-(4-phenoxyphenyl)-1H-pyrazolo[3,4-d]pyrimidin-1-yl]piperidin-1-yl]prop-2-en-1-one] was tested, and the cytokine production (primary MCL cells [1]) was “significant cytokine production in a dose-dependent manner”, the T cell expansion (B cell neoplasms; CART19-treated mice, ibrutinib or vehicle treatment, FIG. 4D) was “augmented” and the “CRS after a CD19 CAR therapy” value (B cell neoplasms; CD19 CAR therapy for B cell neoplasms, summary statement) was “improve or prevent CRS”. For the same molecule, the “serum cytokines involved in CRS (Luminex)” value (B cell neoplasms; mice treated with CART19+ibrutinib vs CART19, FIG. 4E) was “significant reduction”, the overall survival (B cell neoplasms; mice treated with CART19 plus ibrutinib (vs CART19 plus vehicle), FIG. 4B, log-rank test) was “significantly increased” and the “overall survival (OS)” value (primary MCL cells [2]; CART19 + ibrutinib 125 mg/Kg/day in drinking water vs CART19 alone) was “prolonged overall survival”. The “CART19 expansion in the PB” value (primary MCL cells [2]; CART19 + ibrutinib vs CART19 alone) was “augmented” and the “cytokines in the peripheral blood (IL-6, IFNg, TNFα, IL-2, GM-CSF)” value (primary MCL cells [2]; day 4, ibrutinib-treated mice) was “significantly reduced”.
